Source: PMC11475320 (2024)

How the values were obtained:
Assay in all cases: CD melting at 260 nm
[1] = test system: AsGq (G-quadruplex of As4625') (DNA, G4) GGTGGTGGTGGTTGTGGTGGTGGTGGAACGGAGGCTGGGAT; conditions: K+ 40 mM, Mg2+ from TAMg buffer (0.04×), 2% DMF, 4 μM ZnPc, 16 μM DNA, derived from two Tm (53.0, 54.6)
[2] = test system: As1411 (DNA, G4) GGTGGTGGTGGTTGTGGTGGTGGTGG; conditions: K+ 40 mM, Mg2+ from TAMg buffer (0.04×), 2% DMF, 4 μM ZnPc, 16 μM DNA, derived from two Tm (59.8, 61.7)
[3] = test system: AsGq-4625 (DNA, G4, strand 2: 2'-OMe at 1-5 and 16-20 (text b19; Table S1 footnote says 2'-modification with hydroxy group); phosphorothioate at all linkages) GGTGGTGGTGGTTGTGGTGGTGGTGGAACGGAGGCTGGGAT/AAGGCATCCCAGCCTCCGUU; conditions: K+ 40 mM, Mg2+ from TAMg buffer (0.04×), 2% DMF, 4 μM ZnPc, 16 μM DNA, derived from two Tm (52.3, 53.1)

[Zn+2].c1ccc2c(c1)-c1nc3nc(nc4[n-]c(nc5[n-]c(nc-2n1)c1ccccc51)c1ccccc41)-c1ccccc1-3
ΔTm [1]: 1.6 °C | ΔTm [2]: 1.9 °C | ΔTm [3]: 0.8 °C
